Measured values as given in article PMC7098970, “Neurosteroids as Selective Inhibitors of Glycine Receptor Activity: Structure-Activity Relationship Study on Endogenous Androstanes and Androstenes” (Frontiers in Molecular Neuroscience, 2020).
“Also recorded” adds a separate entry of the source. Structures can show the parent of a compound that is named as a salt. Where two headings read alike, the source gives them in different places.

Columns and labels:
GABAAR = system: GABAAR; parameters: method as in Park-Chung et al., 1999; settings: ref Park-Chung et al., 1999; cited from earlier work
glycine receptor (GlyR) = assay: Glycine-induced chloride current (IGly), whole-cell patch-clamp in isolated pyramidal neurons of the rat hippocampus; assay type: cell-based; settings: 100 μM glycine; for τdes/τdes control of IGly: 0.1 μM of steroid; for τdes/τdes control of IGly / Ipeak/Ipeak control of IGly: mean ± SEM, normalized; for τdes IGly (effect on time constant of desensitization): 10 μM compound; for Ipeak/Ipeak control of IGly: 10 μM of steroid; for Ipeak max (maximum inhibition attainable) of IGly / τdes max (maximum inhibition attainable) of IGly: Hill fit; for Ipeak max (maximum inhibition attainable) of IGly / Ipeak Hill coefficient of IGly: peak amplitude; for τdes max (maximum inhibition attainable) of IGly / τdes Hill coefficient of IGly: time constant of desensitization
Experimental: (§1) All experiments were conducted per the requirements of the Ministry of Public Health of the Russian Federation and were consistent with the EU directive for Use of Experimental Animals of the European Community. […] The cells were isolated from transverse hippocampal slices as described in detail elsewhere ([Vorobjev, 1991]). Briefly, the slices (200–500 μm) of Wistar rats (11–14 days of age) hippocampus or cerebellum were incubated at room temperature for at least 2 h in a solution containing the following components (in mM): 124 NaCl, 3 KCl, 2 CaCl2, 2 MgSO4, 25 NaHCO3, 1.3 NaH2PO4, 10 D-glucose, pH 7.4. The saline was continuously stirred and bubbled with carbogen (95% 0_2 + 5% CO2). Single pyramidal neurons from the hippocampal CA3 area or Purkinje cells from sagittal slices of the cerebellum were isolated by a vibrating fused glass pipette with a spherical tip.
(§2) Isolated neurons were patch clamped and then lifted into the outflow of the control bath solution. […] The substances were applied through glass capillary, 0.1 mm in diameter, which could be rapidly displaced laterally ([Vorobjev et al., 1996]). A fast perfusion technique allows a complete exchange of external solution surrounding a neuron within 20 ms. […] Transmembrane currents were recorded using a conventional patch-clamp technique in the whole-cell configuration. […] The solution in the recording pipette contained the following (in mM): 40 CsF, 100 CsCl, 0.5 CaCl2, 5 EGTA, 3 MgCl2, 4 NaATP, 5 HEPES, pH 7.3. The composition of the extracellular solution was as follows (in mM): 140 NaCl, 3 KCl, 3 CaCl2, 3 MgCl2, 10 D-glucose, 10 HEPES hemisodium, and pH 7.4. Recording of the currents was performed using EPC7 patch-clamp amplifier (HEKA Electronik, Germany). The holding potential was maintained at −70 mV. Transmembrane currents were filtered at 3 kHz, stored and analyzed with IBM-PC computer, using homemade software.
(§3) Statistical analysis was performed with the help of Prism Graphpad software. All comparisons were made with ANOVA-test using Dunnett’s multiple comparison test and Student’s unpaired t-test at a significance level of p = 0.05. N = 5–8 cells from 3 to 4 animals for every concentration. […] The meanings of asterisks (probability levels) in figures is the following: ^∗P < 0.05, ^∗∗P < 0.01. The IC50 values for steroids inhibition of the IGly and IGABA were determined using the equation: Y = 1 – [max/(1 + (IC50/C)^n)], where max is the maximum inhibition attainable, C is the concentration of steroid, IC50 is the half-maximal inhibitory concentration and n is the slope factor (Hill coefficient).
(§4) First, the ability of steroids to affect the holding current at voltage-clamp regime was tested. […] The experiments with IGly were conducted on rat hippocampal neurons, and experiments with IGABA were conducted on rat cerebellar Purkinje cells.

GABAA receptors = target: T1, GABAA receptors (Rattus norvegicus, UniProt P18508+P62813+P63138); assay type: cell-based
T1 construct: Single pyramidal neurons from the hippocampal CA3 area or Purkinje cells from sagittal slices of the cerebellum were isolated; endogenous in cells; host or cells: acutely isolated Purkinje cells from cerebellar slices of Wistar rats, 11-14 days old
Experimental: as §1, §2, §3, §4

recombinant GlyRs = system: recombinant GlyRs; parameters: method as in Maksay et al. (2001); settings: expressed in frog oocytes; ref Maksay et al. (2001); read-out: IC50 for inhibition of recombinant GlyRs; cited from earlier work
[1] = read-out: Ipeak IC50 of IGly, inhibition of peak amplitude
[2] = read-out: τdes IC50 of IGly, acceleration of desensitization (decrease in τdes)

T1 sequence (P62813 28-455): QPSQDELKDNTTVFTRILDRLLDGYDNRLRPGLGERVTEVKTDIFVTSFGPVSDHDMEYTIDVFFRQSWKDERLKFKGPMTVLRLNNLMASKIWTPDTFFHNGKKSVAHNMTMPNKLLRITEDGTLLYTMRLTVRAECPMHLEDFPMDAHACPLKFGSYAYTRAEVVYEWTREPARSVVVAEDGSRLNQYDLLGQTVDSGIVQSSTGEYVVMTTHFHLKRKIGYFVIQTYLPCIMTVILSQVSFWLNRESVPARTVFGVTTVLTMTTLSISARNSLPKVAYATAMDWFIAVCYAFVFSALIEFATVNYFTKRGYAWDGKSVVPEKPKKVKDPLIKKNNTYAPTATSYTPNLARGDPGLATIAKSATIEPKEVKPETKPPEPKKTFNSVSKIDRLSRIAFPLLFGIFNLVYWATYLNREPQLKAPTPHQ
T1 sequence (P63138 25-474 limits assumed): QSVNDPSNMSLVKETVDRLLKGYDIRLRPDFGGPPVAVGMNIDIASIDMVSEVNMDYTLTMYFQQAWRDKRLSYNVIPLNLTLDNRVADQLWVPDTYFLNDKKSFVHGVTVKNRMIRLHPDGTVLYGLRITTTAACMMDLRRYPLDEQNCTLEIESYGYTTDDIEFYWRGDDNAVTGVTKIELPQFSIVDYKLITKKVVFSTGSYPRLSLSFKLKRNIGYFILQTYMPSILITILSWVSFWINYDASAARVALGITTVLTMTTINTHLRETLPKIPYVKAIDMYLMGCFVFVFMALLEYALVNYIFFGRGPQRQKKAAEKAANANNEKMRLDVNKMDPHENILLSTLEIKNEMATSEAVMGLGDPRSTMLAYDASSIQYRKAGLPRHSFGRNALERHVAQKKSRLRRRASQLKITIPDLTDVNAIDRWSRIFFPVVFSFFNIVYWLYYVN
T1 sequence (P18508 39-466): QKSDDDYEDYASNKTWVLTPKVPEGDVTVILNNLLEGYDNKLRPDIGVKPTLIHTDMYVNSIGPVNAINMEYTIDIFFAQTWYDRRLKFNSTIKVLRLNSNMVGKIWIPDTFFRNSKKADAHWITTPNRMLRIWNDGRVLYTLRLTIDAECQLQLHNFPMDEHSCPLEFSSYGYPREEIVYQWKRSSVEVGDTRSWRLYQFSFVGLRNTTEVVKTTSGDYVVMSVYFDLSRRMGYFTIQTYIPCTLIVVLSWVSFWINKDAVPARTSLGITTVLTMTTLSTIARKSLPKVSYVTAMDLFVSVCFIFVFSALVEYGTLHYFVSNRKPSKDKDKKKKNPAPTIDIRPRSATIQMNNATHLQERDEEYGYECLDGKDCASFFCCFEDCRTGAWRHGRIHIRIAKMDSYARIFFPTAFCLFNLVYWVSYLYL

## CC(=O)[C@H]1CC[C@H]2[C@@H]3CC[C@H]4C[C@H](O)CC[C@]4(C)[C@H]3CC[C@]12C [3α-hydroxy-5α-pregnane-20-one]
GABAAR
  Efficacy of potentiation of IGABA: 1373%

## CC(O)C1CCC2C3CCC4CC(O)CCC4(C)C3CCC12C (stereo not drawn) [20α-hydroxy analog]
GABAAR
  Efficacy of potentiation of IGABA: 166%

## C[C@]12CC[C@H](O)CC1=CC[C@@H]1[C@@H]2CC[C@]2(C)C(=O)CC[C@@H]12 [Compound 8, 3β-Hydroxy-androst-5-en-17-one]
Glycine receptor (GlyR)
  τdes/τdes control of IGly: 0.67 ± 0.05
  τdes IGly (effect on time constant of desensitization): −79%
  Ipeak/Ipeak control of IGly: 0.70 ± 0.01
  Ipeak max (maximum inhibition attainable) of IGly: 0.73 ± 0.08
  τdes max (maximum inhibition attainable) of IGly: 0.88 ± 0.09
  Ipeak Hill coefficient of IGly: 0.92 ± 0.14
  τdes Hill coefficient of IGly: 0.57 ± 0.14
Glycine receptor (GlyR); [1]
  IC50: 21.3 ± 2.2 µM
Glycine receptor (GlyR); [2]
  IC50: 0.24 ± 0.09 µM
GABAA receptors; 10 μM compound, 5 μM GABA
  τdes IGABA (effect on time constant of desensitization): −12%
GABAA receptors; 10 μM of steroid, 5 μM GABA
  τdes/τdes control of IGABA: 0.88 ± 0.05
GABAA receptors; 50 μM compound, 5 μM GABA
  Acceleration of decay (desensitization) of IGABA: 23–45%
  Decrease in the peak amplitude of IGABA: 14–25%
GABAA receptors; 50 μM of steroid, 5 μM GABA
  Ipeak/Ipeak control of IGABA: 0.75 ± 0.04

## C[C@]12CCC(=O)C[C@H]1CC[C@@H]1[C@@H]2CC[C@]2(C)C(=O)CC[C@@H]12 [Compound 9, 5β-Androstane-3,17-dione]
Glycine receptor (GlyR)
  τdes/τdes control of IGly: 0.72 ± 0.07
  τdes IGly (effect on time constant of desensitization): −68%
  Ipeak/Ipeak control of IGly: 0.77 ± 0.03
  Ipeak max (maximum inhibition attainable) of IGly: 0.68 ± 0.09
  τdes max (maximum inhibition attainable) of IGly: 0.79 ± 0.11
  Ipeak Hill coefficient of IGly: 1.0 ± 0.19
  τdes Hill coefficient of IGly: 0.56 ± 0.14
Glycine receptor (GlyR); [1]
  IC50: 22 ± 2.8 µM
Glycine receptor (GlyR); [2]
  IC50: 0.4 ± 0.12 µM
GABAA receptors
  Ipeak/Ipeak control of IGABA: 0.99 ± 0.01
  Modulation of IGABA (peak amplitude or rate of decay/desensitization): did not modulate; also recorded: remained inactive; also recorded: did not change
  τdes IGABA (effect in words): ^cNo effect
  τdes/τdes control of IGABA: 0.97 ± 0.03

## C[C@]12CC[C@H](OS(=O)(=O)O)CC1=CCC1C2CC[C@]2(C)C(=O)CCC12 (stereo partly drawn) [DHEA sulfate]
Recombinant GlyRs
  IC50: 2.5 to 6.3 µM
